Experimental data published in patent publication US20160011220A1, “Systems and Methods to Quantify Analytes in Keratinized Samples” (PURDUE PHARMA L.P., priority 2012, published 2016).

How the values were obtained:
[1] = Stability of hair levels among individuals on stable doses of opioids, visit 1 vs visit 2 (excluding PRN dose); type: in vivo, human; conditions: hair level at visit 1 vs hair level at visit 2
Excerpt: The study includes 2 study visits approximately 60 days apart. The second visit allowable range is between 45 and 75 days after the first visit. Patients submit hair and urine samples at both study visits
The enrolled subjects are current, past or new users of prescribed opioid analgesic regimens in either (i) the past 30 days, (ii) the past 31 to 120 days or were not previously prescribed an opioid regimen. All opioid analgesic regimens are self-reported.
E. Assessment of the Stability of Hair Levels Among Individuals on Stable Doses of Opioids (Excluding PRN Dose)
Also shown in Table 1B and the graphs is data from a sub-population of tested subjects, which excluded patients where the start date of the regimen was within the 90 day window of the enrollment date.

[2] = Relationship between prescribed opioid dose and hair levels (excluding PRN dose); type: in vivo, human
[3] = excluding patients whose prescription started less than 90 days before enrollment (n = 361)

## COc1ccc2c3c1O[C@H]1C(=O)CC[C@H]4[C@@H](C2)N(C)CC[C@]314 [Hydrocodone, hydrocodone]
[1]; all interim sample (n = 411)
  R (correlation coefficient): 0.880
  R-Squared: 0.775
[1]; [3]
  R (correlation coefficient): 0.883
  R-Squared: 0.781

## CN1CC[C@]23c4c5ccc(O)c4O[C@H]2[C@@H](O)C=C[C@H]3[C@H]1C5 [Morphine, morphine]
[1]; all interim sample (n = 411)
  R (correlation coefficient): 0.789
  R-Squared: 0.623
[1]; [3]
  R (correlation coefficient): 0.974
  R-Squared: 0.949

## COc1ccc2c3c1O[C@H]1C(=O)CC[C@@]4(O)[C@@H](C2)N(C)CC[C@]314 [Oxycodone, oxycodone]
[2]
  total variation in the hair levels explained by the linear relationship between total daily dose and hair levels (coefficient of determination): approximately 55%
[1]; all interim sample (n = 411)
  R (correlation coefficient): 0.959
  R-Squared: 0.920
[1]; [3]
  R (correlation coefficient): 0.960
  R-Squared: 0.922
